Test results taken from patent US11884651B1, “7-(4-((4-benzylidene-5-oxo-2-phenyl-4,5-dihydro-1H-imidazol-1-yl)methyl)piperazin-1-yl)-1-cyclopropyl-6-fluoro-4-oxo-1,4-dihydroquinoline-3-carboxylic acid as an anti-inflammatory compound” (KING FAISAL UNIVERSITY, priority 2023, dated 2024).

Columns and labels:
[1] = molecular target: Bovine Serum Albumin (BSA) (Bos taurus, UniProt P02769); test: Bovine Serum Albumin Assay (BSA), inhibition of heat-induced protein denaturation (in vitro anti-inflammatory activity); type: biochemical
Chain of Bovine Serum Albumin (BSA) (P02769 25-607): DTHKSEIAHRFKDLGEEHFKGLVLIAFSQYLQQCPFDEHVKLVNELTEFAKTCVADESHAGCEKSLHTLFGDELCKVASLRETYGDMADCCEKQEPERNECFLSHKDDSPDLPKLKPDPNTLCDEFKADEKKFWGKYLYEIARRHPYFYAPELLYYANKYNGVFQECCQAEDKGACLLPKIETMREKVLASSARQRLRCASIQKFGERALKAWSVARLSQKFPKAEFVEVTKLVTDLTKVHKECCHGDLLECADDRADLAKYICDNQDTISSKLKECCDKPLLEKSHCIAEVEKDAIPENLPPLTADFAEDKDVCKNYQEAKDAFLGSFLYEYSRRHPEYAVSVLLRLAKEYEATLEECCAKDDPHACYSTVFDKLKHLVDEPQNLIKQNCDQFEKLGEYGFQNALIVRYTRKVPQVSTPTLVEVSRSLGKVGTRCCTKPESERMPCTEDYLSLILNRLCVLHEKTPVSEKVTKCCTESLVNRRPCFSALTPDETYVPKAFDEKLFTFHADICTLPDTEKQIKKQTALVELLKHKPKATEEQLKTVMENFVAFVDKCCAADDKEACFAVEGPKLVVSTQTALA
Procedure: Bovine Serum Albumin Assay (BSA) In vitro-inflammatory activities of the tested samples were determined using a modified method of the BSA assay reported by Williams et al. BSA solution (0.4%, w/v) was prepared in Tris Buffered Saline. The pH was adjusted to 6.4 with glacial acetic acid. Different dilutions of 20, 40, 60, 80, and 100 pg/mL of the stock solutions of 7-(4((4-benzylidene-5-oxo-2-phenyl-4,5-dihydro-1H-imidazol-1-yl)methyl)piperazin-1-yl)-1-cyclopropyl-6-fluoro-4-oxo-1,4-dihydroquinoline-3-carboxylic acid (4) were added to test tubes containing 1 mL of 0.4%, w/v BSA buffer solution. Both negative (solvent) and positive (aspirin) controls were assayed in a similar manner. The solutions were then heated in a water bath at 72° C. for 10 minutes and cooled for 20 minutes under laboratory conditions. The turbidity of the solutions (level of protein precipitation) was measured at 660 nm in Spectrophotometer (V-770 UV-Visible/NIR Spectrophotometer). The percentage inhibition of precipitation (protein denaturation) was determined relative to the negative control using the following equation: [formula] [formula]

Row | in vitro anti-inflammatory activity (result in words) ([1]; BSA assay) | percentage inhibition of precipitation (protein denaturation) ([1]; bovine, 10 min, 100 pg/mL, pH 6.4) [%] | melting point [°C] | percentage inhibition of precipitation (protein denaturation) ([1]; 100 pg/ml (concentration printed for aspirin), 0.4% w/v BSA, pH 6.4, 72° C. for 10 minutes, turbidity at 660 nm, relative to negative control) [%] | SMILES
1 | considerable anti-inflammatory effect | 84.78 | 232 to 234 |  | O=C(O)c1cn(C2CC2)c2cc(N3CCN(CN4C(=O)/C(=C\c5ccccc5)N=C4c4ccccc4)CC3)c(F)cc2c1=O [Compound 4, 7-(4-((4-benzylidene-5-oxo-2-phenyl-4,5-dihydro-1H-imidazol-1-yl)methyl)piperazin-1-yl)-1-cyclopropyl-6-fluoro-4-oxo-1,4-dihydroquinoline-3-carboxylic acid]
2 |  |  |  | 90.75 | CC(=O)Oc1ccccc1C(=O)O [aspirin, reference compound]
